Settings: 343.15 K, Liquid, Vibrating tube method

CCCCCC(=O)OCC(COC(=O)CCCCC)(COC(=O)CCCCC)COC(=O)CCCCC [pentaerythritol tetrahexanoate]
Settings | mass density [kg/m3]
484.6 kPa | 957.4
487.7 kPa | 957.3
491.5 kPa | 957.4
525.8 kPa | 957.3
529.4 kPa | 957.6
533.4 kPa | 957.5
538.1 kPa | 957.5
545.9 kPa | 957.4
550.2 kPa | 957.6
555.3 kPa | 957.6
559.3 kPa | 957.5
564 kPa | 957.5
569 kPa | 957.5
573.7 kPa | 957.5
578 kPa | 957.5
584 kPa | 957.6
588.1 kPa | 957.6
593 kPa | 957.5
603.9 kPa | 957.5
609 kPa | 957.6
614.9 kPa | 957.5
620.1 kPa | 957.6
625 kPa | 957.5
631.2 kPa | 957.5
636.6 kPa | 957.6
641.6 kPa | 957.6
647 kPa | 957.7
653.6 kPa | 957.6
659.4 kPa | 957.5
666.5 kPa | 957.5
672.6 kPa | 957.7
678.3 kPa | 957.5
684.7 kPa | 957.7
691 kPa | 957.6
697.2 kPa | 957.5
704.9 kPa | 957.6
711.5 kPa | 957.6
719.3 kPa | 957.5
725.9 kPa | 957.6
732.7 kPa | 957.6
739.6 kPa | 957.6
747.6 kPa | 957.6
786 kPa | 957.7
793.7 kPa | 957.6
801.8 kPa | 957.7
809.8 kPa | 957.8
818 kPa | 957.6
828.1 kPa | 957.7
836.4 kPa | 957.7
845.3 kPa | 957.6
855.7 kPa | 957.8
864.5 kPa | 957.8
873.7 kPa | 957.7
883.3 kPa | 957.6
894.6 kPa | 957.6
904.5 kPa | 957.9
915.8 kPa | 957.7
967 kPa | 957.8
977.1 kPa | 957.8
989.1 kPa | 957.8
999.5 kPa | 957.8
1011.5 kPa | 957.9
1022.2 kPa | 957.7
1032.7 kPa | 958
1043.4 kPa | 957.9
1053.7 kPa | 957.9
1066.4 kPa | 958
1076.6 kPa | 957.9
1087.5 kPa | 957.9
1100.4 kPa | 957.8
1110.6 kPa | 958
1121.6 kPa | 957.9
